Test results reported in patent EP1690525B1, “Gamma-polyglutamate hydrogels for use as super moisturizers in cosmetic and personal care products” (Tung Hai Biotechnology Corporation, priority 2005, dated 2006).

How the values were obtained:
[1] = test system: outside surface of the upper arm skin of a test panelist; assay: Skin irritation patch test, Draize method; format: in vivo, human; conditions: 5.0% in facial moisture mask; patched 24 hours
Excerpt: The small molecular weight γ-polyglutamate in […] with 200,000 to 400,000 daltons (designated as LM), high molecular weight γ-polyglutamate in Ca^++ form with 1.15x10^6 to 1.35x10^6 daltons (designated as HM), and γ-polyglutamate hydrogel (prepared from γ-polyglutamate in Na^+ form) with molecular weight from 15x10^6 to 100x10^6 or higher (cross-linked with gamma ray irradiation) were used as super moisturizers. The species and proportions of the ingredients contained in the exemplified facial moisture mask formulation are listed in Table 5. Table 5. Facial Moisture Mask Formulation
The moisture mask samples of 25 cm^2 were taken from experimental example 4 and patched evenly on the outside surface of the upper arm skin of a test panelist. A group of 10 panelists participated in this test. After 24 hours, then the mask samples were removed and the skin was observed carefully for any degree of irritation, and the results were recorded according to Draize method (see Appraisel of the Safety of Chemicals in Food, Drugs and Cosmetics. Pharmacolo. 93:377-392, 1948, Draize, F. et al.). Table 6. The film formation time, capacity increase ratio (%), the pH value of the skin, and the Draize score after applying facial moisture masks

[2] = test system: outside skin surface of the arm of a test panelist; assay: Moisture retention of the skin after peeling off facial moisture mask (capacitance, Skin Analysis SHP88); format: in vivo, human; conditions: 5.0% in facial moisture mask; mask film peeled off after 15 minutes; 23°C, RH 65%
tyrosinase = assay: Inhibition of tyrosinase activity (absorbency at 475 nm); format: biochemical; conditions: 1.0% sample
Excerpt: Although the formation of black pigment melanin on skin is complicated, it is generally realized that tyrosine is oxidized to DOPA (Dihydroxy Phenyalanine) by the catalysis of tyrosinase from melansome of melanocyte. The DOPA is further oxidized and finally converted into colored melanin-protein complex. The small molecular weight γ-polyglutamate in Na^+ form with 200,000 to 350,000 daltons (designated as LM) and high molecular weight γ-polyglutamate in Na^+ form with 1.15x10^6 to 1.35x10^6 daltons (designated as HM) were used in this experiment to determine the effectiveness in inhibiting the tyrosinase activity. • a. […] Sample of the reaction solution is then taken for measuring the absorbency at 475 nm, and recorded as At. • b. Determination of the blank absorbance of tyrosinase solutuion: • Replace 0.1 ml of buffer solution with tyrosinase solution, and repeat the same procedure in item (a), and record the absorbency at 475 nm as A1. • c. Replace 1 ml sample solution with buffer solution, and repeat the same procedure in item (a), and record the absorbance at 475 nm as Ab. • d. Determination of total blank absorbance of test solution: • Replace 1 ml sample solution with buffer solution, and 0.1 ml of tyrosinase solution with buffer solution, and repeat the procedure in item (a), and record the absorbency at 475 nm as Ao. • e. […]

Pig skin [3] = assay: Ex-vivo pig skin: skin moisture retention by corneometry; conditions: 6.5% in skin moisture cream, 23°C and RH 60%
Description: Table 9. Skin moisture cream formulation.
Pig skin was used for this experiment. The skin moisture was measured at 23 °C under an environment of relative humidity (RH) of 60% with a probe of corneometer HM99 of Courage^+Khazaka Electronic Gmbh, Germany.

Pig skin [4] = assay: Ex-vivo pig skin: Trans-Epidermal-Water-Loss (TEWL); set-up: unit not given here; conditions: 6.5% in skin moisture cream
[5] = test system: inside skin surface of a test panelist's arm; assay: Water retention on skin after skin vital moisture cream (capacitance, Skin Analysis SHP88); format: in vivo, human; conditions: 5% in skin vital moisture cream, 22°C and RH 65%
Description: Table 2: Skin vital moisture cream formulation. […] A sample of 0.2g from each of the 5 products was evenly spread over an area of about 25 cm^2 on the inside skin surface of a test panelist's arm. A group of 10 panelists participated in this test. The water retention on the skin surface was measured at 23 °C under an environment of relative humidity of 60%, with a probe of Skin Analysis SHP88 made by Courage ^+Khazaka Electronic Gmbh, Germany. […] Table 3. The change of moisture retention over time after applying vital moisture creams, was expressed in terms of capacitance increase ratio, %, measured at 22°C and RH 65%.

[6] = test system: outside skin surface of the panelist's arm; assay: Skin moisturization by corneometer HM99 (ΔCU=CU2-CU1); format: in vivo, human; conditions: 2% in skin moisture cream
Description: Table 7: Skin moisture cream formulation. The cosmetic products from experimental example 6 were evaluated for the effectiveness of skin moisturization. A group of 5 test panelists participated in this experiment. The panelists were first put in a room with a temperature at 22 °C and relative humidity (RH) 60% for 15 minutes. A probe of the corneometer HM99 of Courage^+Khazaka Electronic Gmbh, Germany was used to measure the skin moisture of the outside skin surface of the panelist's arm to determine the base line as (CU1). A sample of 0.2g from the formulation of experimental example 6 was evenly spread over an area of 25 cm^2 of the skin surface for 2 minutes before the excess formulation sample was removed. After 2 hours the skin moisture was measured again and recorded as (CU2). Before the measurement the panelists were placed in a room with temperature at 22 °C and RH 60% for 15 minutes. The atteration of skin moisture is then calculated as ΔCU=CU2-CU1.

CC(O)CCO (stereo not drawn) [1,3-BG, 1,3-Butyl Glycol]
Draize Score [1]: 0
Capacitance Increase Ratio, % [2]: 73.2%

O=C1O[C@H]([C@@H](O)CO)C(O)=C1O [Vitamin C]
Inhibition of Tyrosinase Activity, % (tyrosinase): 99.4%

OCC(O)CO [Glycerol]
Difference Corneometry, % (Pig skin [3]; Time 0 hour): 48.. %
Difference Corneometry, % (Pig skin [3]; Time 1 hour): 32%
Difference Corneometry, % (Pig skin [3]; Time 2 hour): 20%
Difference Corneometry, % (Pig skin [3]; Time 4 hour): 17%
Difference Corneometry, % (Pig skin [3]; Time -1 hour): 100%
Trans-Epidermal-Water-Loss (TEWL) (Pig skin [4]; Time 0 hour): 21.0.
Trans-Epidermal-Water-Loss (TEWL) (Pig skin [4]; Time 1 hour): 19.5
Trans-Epidermal-Water-Loss (TEWL) (Pig skin [4]; Time 2 hour): 19.0
Trans-Epidermal-Water-Loss (TEWL) (Pig skin [4]; Time 2 hour, listed as glycerol): 10.0
Trans-Epidermal-Water-Loss (TEWL) (Pig skin [4]; Time 4 hour): 17.5
Trans-Epidermal-Water-Loss (TEWL) (Pig skin [4]; Time -1 hour): 24.7

CC(O)CO (stereo not drawn) [Propylene Glycol]
Capacitance Increase Ratio, % ([5]; Time 0 min): 0%
Capacitance Increase Ratio, % ([5]; Time 5 min): 105%
Capacitance Increase Ratio, % ([5]; Time 10 min): 57%
Capacitance Increase Ratio, % ([5]; Time 20 min): 51%
Capacitance Increase Ratio, % ([5]; Time 40 min): 40%
Capacitance Increase Ratio, % ([5]; Time 80 min): 38%
Capacitance Increase Ratio, % ([5]; Time 120 min): 36%

O=c1cc(CO)occ1O [Kojic Acid]
Inhibition of Tyrosinase Activity, % (tyrosinase): 100.0%

C[N+](C)(C)CC(=O)O [Natural Betaine]
Increase in Skin Moisture ΔCU ([6]; after 2 hours, 22 °C, RH 60%): 12.3
Relative ΔCU % ([6]; relative to 5% Glycerol = 100): 164%
